Measurements as given in the NIST ThermoML archive (doi:10.1007/s10765-008-0535-5).

Details: Liquid, Pycnometric method

FCF [difluoromethane]
Details | mass density [kg/m3]
268.15 K, 8268 kPa | 1093.5
268.15 K, 8502 kPa | 1093.5
269.15 K, 9280 kPa | 1093.3
269.15 K, 9512 kPa | 1093.3
270.15 K, 10291 kPa | 1093.2
270.15 K, 10521 kPa | 1093.2
271.15 K, 11302 kPa | 1093
271.15 K, 11531 kPa | 1093
272.15 K, 12312 kPa | 1092.9
272.15 K, 12421 kPa | 1092.9
272.15 K, 12540 kPa | 1092.9
273.15 K, 13321 kPa | 1092.7
273.15 K, 13429 kPa | 1092.8
273.15 K, 13551 kPa | 1092.7
274.15 K, 14330 kPa | 1092.6
274.15 K, 14438 kPa | 1092.6
274.15 K, 14560 kPa | 1092.6
275.15 K, 15337 kPa | 1092.4
275.15 K, 15444 kPa | 1092.4
275.15 K, 15568 kPa | 1092.4
276.15 K, 16344 kPa | 1092.3
276.15 K, 16452 kPa | 1092.3
276.15 K, 16577 kPa | 1092.3
277.15 K, 17350 kPa | 1092.1
277.15 K, 17457 kPa | 1092.1
277.15 K, 17583 kPa | 1092.1
278.15 K, 18354 kPa | 1092
278.15 K, 18462 kPa | 1092
278.15 K, 18589 kPa | 1092
279.15 K, 19358 kPa | 1091.8
279.15 K, 19465 kPa | 1091.8
279.15 K, 19595 kPa | 1091.8
280.15 K, 20361 kPa | 1091.7
280.15 K, 20468 kPa | 1091.7
280.15 K, 20598 kPa | 1091.7
281.15 K, 21363 kPa | 1091.5
281.15 K, 21470 kPa | 1091.5
281.15 K, 21601 kPa | 1091.5
282.15 K, 22363 kPa | 1091.4
282.15 K, 22472 kPa | 1091.4
282.15 K, 22602 kPa | 1091.4
283.15 K, 23363 kPa | 1091.2
283.15 K, 23473 kPa | 1091.2
283.15 K, 23603 kPa | 1091.2
284.15 K, 24362 kPa | 1091.1
284.15 K, 24472 kPa | 1091.1
284.15 K, 24606 kPa | 1091
285.15 K, 25359 kPa | 1090.9
285.15 K, 25470 kPa | 1090.9
285.15 K, 25603 kPa | 1090.9
286.15 K, 26356 kPa | 1090.8
286.15 K, 26466 kPa | 1090.8
286.15 K, 26598 kPa | 1090.7
287.15 K, 27351 kPa | 1090.6
287.15 K, 27461 kPa | 1090.6
287.15 K, 27594 kPa | 1090.6
288.15 K, 28345 kPa | 1090.4
288.15 K, 28454 kPa | 1090.4
288.15 K, 28588 kPa | 1090.4
289.15 K, 5774 kPa | 1015.9
289.15 K, 5835 kPa | 1015.9
289.15 K, 29338 kPa | 1090.3
289.15 K, 29446 kPa | 1090.3
289.15 K, 29581 kPa | 1090.3
290.15 K, 6570 kPa | 1015.8
290.15 K, 6631 kPa | 1015.8
291.15 K, 7365 kPa | 1015.7
291.15 K, 7428 kPa | 1015.7
292.15 K, 8161 kPa | 1015.6
292.15 K, 8224 kPa | 1015.5
293.15 K, 8956 kPa | 1015.5
293.15 K, 9019 kPa | 1015.4
294.15 K, 9752 kPa | 1015.3
294.15 K, 9815 kPa | 1015.3
295.15 K, 10546 kPa | 1015.2
295.15 K, 10610 kPa | 1015.2
296.15 K, 11341 kPa | 1015.1
296.15 K, 11405 kPa | 1015.1
297.15 K, 12135 kPa | 1015
297.15 K, 12199 kPa | 1014.9
298.15 K, 12929 kPa | 1014.9
298.15 K, 12993 kPa | 1014.8
299.15 K, 13723 kPa | 1014.7
299.15 K, 13787 kPa | 1014.7
300.15 K, 14517 kPa | 1014.6
300.15 K, 14581 kPa | 1014.6
301.15 K, 15309 kPa | 1014.5
301.15 K, 15374 kPa | 1014.4
302.15 K, 16102 kPa | 1014.4
302.15 K, 16167 kPa | 1014.3
303.15 K, 16894 kPa | 1014.2
303.15 K, 16960 kPa | 1014.2
304.15 K, 17685 kPa | 1014.1
304.15 K, 17752 kPa | 1014.1
305.15 K, 18476 kPa | 1014
305.15 K, 18543 kPa | 1014
306.15 K, 19267 kPa | 1013.9
306.15 K, 19335 kPa | 1013.8
307.15 K, 20125 kPa | 1013.7
308.15 K, 20848 kPa | 1013.6
308.15 K, 20915 kPa | 1013.6
309.15 K, 21639 kPa | 1013.5
309.15 K, 21704 kPa | 1013.4
310.15 K, 22429 kPa | 1013.4
310.15 K, 22492 kPa | 1013.3
311.15 K, 23217 kPa | 1013.3
311.15 K, 23281 kPa | 1013.2
312.15 K, 24005 kPa | 1013.2
312.15 K, 24068 kPa | 1013.1
313.15 K, 24793 kPa | 1013
313.15 K, 24855 kPa | 1012.9
314.15 K, 25579 kPa | 1012.9
314.15 K, 25641 kPa | 1012.8
315.15 K, 26364 kPa | 1012.8
315.15 K, 26427 kPa | 1012.7
316.15 K, 27149 kPa | 1012.7
316.15 K, 27212 kPa | 1012.6
317.15 K, 27934 kPa | 1012.5
317.15 K, 27996 kPa | 1012.4
318.15 K, 28719 kPa | 1012.4
318.15 K, 28779 kPa | 1012.3
